Values of other authors, collected in article PMC3433420 (PLoS ONE, 2012).
Where two headings read alike, the source gives them in different places.

Target: SH2 and PTB domains
Details: cited from earlier work
Text: Supplement pone.0044471.s022.xlsx, sheet "Most recent PM interactions" | column: Kd || Supplement pone.0044471.s022.xlsx, sheet "All original PM interactions" | column: Kd

[1] = Protein ABL2, most recent PM interactions, ref Jones et al. 2006 / Kaushansky et al. Mol Biosys 2008 / Kaushansky et al. Chem and Biol 2008
[2] = Protein RASA1-N, most recent PM interactions, ref Jones et al. 2006 / Kaushansky et al. Mol Biosys 2008 / Kaushansky et al. Chem and Biol 2008
[3] = Protein SHC1-PTB, most recent PM interactions, ref Jones et al. 2006 / Kaushansky et al. Mol Biosys 2008 / Kaushansky et al. Chem and Biol 2008
[4] = Protein SHC2-PTB, most recent PM interactions, ref Jones et al. 2006 / Kaushansky et al. Mol Biosys 2008 / Kaushansky et al. Chem and Biol 2008
[5] = Protein SYK-NC, most recent PM interactions, ref Jones et al. 2006 / Kaushansky et al. Mol Biosys 2008 / Kaushansky et al. Chem and Biol 2008
[6] = Protein PIK3R1-NC, most recent PM interactions, ref Jones et al. 2006 / Kaushansky et al. Mol Biosys 2008 / Kaushansky et al. Chem and Biol 2008
[7] = Protein PIK3R2-N, most recent PM interactions, ref Jones et al. 2006 / Kaushansky et al. Mol Biosys 2008 / Kaushansky et al. Chem and Biol 2008
[8] = Protein PIK3R2-NC, most recent PM interactions, ref Jones et al. 2006 / Kaushansky et al. Mol Biosys 2008 / Kaushansky et al. Chem and Biol 2008
[9] = Protein PIK3R3-N, most recent PM interactions, ref Jones et al. 2006 / Kaushansky et al. Mol Biosys 2008 / Kaushansky et al. Chem and Biol 2008
[10] = Protein PIK3R3-NC, most recent PM interactions, ref Jones et al. 2006 / Kaushansky et al. Mol Biosys 2008 / Kaushansky et al. Chem and Biol 2008
[11] = Protein VAV2, most recent PM interactions, ref Jones et al. 2006 / Kaushansky et al. Mol Biosys 2008 / Kaushansky et al. Chem and Biol 2008
[12] = Protein SHB, most recent PM interactions, ref Jones et al. 2006 / Kaushansky et al. Mol Biosys 2008 / Kaushansky et al. Chem and Biol 2008
[13] = Protein YES1, most recent PM interactions, ref Jones et al. 2006 / Kaushansky et al. Mol Biosys 2008 / Kaushansky et al. Chem and Biol 2008
[14] = Protein BLK, most recent PM interactions, ref Jones et al. 2006 / Kaushansky et al. Mol Biosys 2008 / Kaushansky et al. Chem and Biol 2008
[15] = Protein RASA1-N, original PM interactions, ref Jones et al. 2006 / Kaushansky et al. Chem and Biol 2008
[16] = Protein CRK, most recent PM interactions, ref Jones et al. 2006 / Kaushansky et al. Mol Biosys 2008 / Kaushansky et al. Chem and Biol 2008

Substance: HQISLDNPDpYQQDFFPKd [ErbB1 1172]
- Kd [1]: 490 nM
- Kd [2]: 1140 nM
- Kd [3]: 40 nM
- Kd [4]: 1310 nM
- Kd [5]: 1280 nM

Substance: HSTAVGNPEpYLNTVQPTd [ErbB1 1138]
- Kd [1]: 120 nM
- Kd (Protein GRB2, most recent PM interactions, ref Jones et al. 2006 / Kaushansky et al. Mol Biosys 2008 / Kaushansky et al. Chem and Biol 2008): 420 nM
- Kd (Protein ITK, most recent PM interactions, ref Jones et al. 2006 / Kaushansky et al. Mol Biosys 2008 / Kaushansky et al. Chem and Biol 2008): 1760 nM
- Kd (Protein NCK2, most recent PM interactions, ref Jones et al. 2006 / Kaushansky et al. Mol Biosys 2008 / Kaushansky et al. Chem and Biol 2008): 330 nM
- Kd [6]: 1570 nM
- Kd [7]: 760 nM
- Kd [8]: 860 nM
- Kd [9]: 840 nM
- Kd [10]: 1690 nM
- Kd [2]: 390 nM
- Kd [3]: 170 nM
- Kd [11]: 370 nM
- Kd (Protein ZAP70-NC, most recent PM interactions, ref Jones et al. 2006 / Kaushansky et al. Mol Biosys 2008 / Kaushansky et al. Chem and Biol 2008): 1140 nM

Substance: IKEDSFLQRpYSSDPTGAd [ErbB1 1069]
- Kd [12]: 860 nM
- Kd [13]: 300 nM

Substance: KGSTAENAEpYLRVAPQSd [ErbB1 1197]
- Kd [1]: 210 nM
- Kd [10]: 1110 nM
- Kd [3]: 320 nM

Substance: KLLGAEEKEpYHAEGGKVd [ErbB1 869]
- Kd [1]: 1080 nM
- Kd [14]: 1710 nM

Substance: KQLLpYSEAKTPId [ErbB3 pY868, N-terminally rhodamine-labeled 13-mer phosphopeptide]
- Kd (Protein ABL2, original PM interactions, ref Jones et al. 2006 / Kaushansky et al. Chem and Biol 2008): 70 nM
- Kd (Protein BCAR3, original PM interactions, ref Jones et al. 2006 / Kaushansky et al. Chem and Biol 2008): 1780 nM
- Kd (Protein CRKL, original PM interactions, ref Jones et al. 2006 / Kaushansky et al. Chem and Biol 2008): 1760 nM
- Kd (Protein NCK2, original PM interactions, ref Jones et al. 2006 / Kaushansky et al. Chem and Biol 2008): 2000 nM
- Kd (Protein PIK3R3-NC, original PM interactions, ref Jones et al. 2006 / Kaushansky et al. Chem and Biol 2008): 2000 nM
- Kd [15]: 950 nM
- Kd (Protein SHC1-PTB, original PM interactions, ref Jones et al. 2006 / Kaushansky et al. Chem and Biol 2008): 2000 nM
- Kd (Protein SYK-NC, original PM interactions, ref Jones et al. 2006 / Kaushansky et al. Chem and Biol 2008): 920 nM

Substance: LGSGAFGTVpYKGLWIPEd [ErbB1 727]
- Kd (Protein SRC, most recent PM interactions, ref Kaushansky et al. Mol Biosys 2008): 580 nM
- Kd (Protein YES1, most recent PM interactions, ref Kaushansky et al. Mol Biosys 2008): 540 nM

Substance: LGYEpYMDVGSDLd [ErbB3 pY1224, N-terminally rhodamine-labeled 13-mer phosphopeptide]
- Kd (Protein PLCG2-NC, original PM interactions, ref Jones et al. 2006 / Kaushansky et al. Chem and Biol 2008): 2000 nM
- Kd [15]: 2000 nM
- Kd (Protein RASA1-NC, original PM interactions, ref Jones et al. 2006 / Kaushansky et al. Chem and Biol 2008): 2000 nM
- Kd (Protein SLA, original PM interactions, ref Jones et al. 2006 / Kaushansky et al. Chem and Biol 2008): 2000 nM
- Kd (protein ABL2, ref Jones et al. 2006 / Kaushansky et al. Chem and Biol 2008): 1130 nM
- Kd (protein PIK3R3-NC, ref Jones et al. 2006 / Kaushansky et al. Chem and Biol 2008): 1510 nM

Substance: LHRIpYTHQSDVWd [ErbB1 pY891, N-terminally rhodamine-labeled 13-mer phosphopeptide]
- Kd (protein HSH2D, ref Kaushansky et al. Mol Biosys 2008): 1130 nM
- Kd (protein TNS4, ref Kaushansky et al. Mol Biosys 2008): 300 nM

Substance: LPPDDKQLLpYSEAKTPI [ErbB3 868]
- Kd (Protein ABL2, most recent PM interactions, ref Jones et al. 2006 / Kaushansky et al. Chem and Biol 2008): 70 nM
- Kd (Protein BCAR3, most recent PM interactions, ref Jones et al. 2006 / Kaushansky et al. Chem and Biol 2008): 1780 nM
- Kd (Protein CRKL, most recent PM interactions, ref Jones et al. 2006 / Kaushansky et al. Chem and Biol 2008): 1760 nM
- Kd (Protein RASA1-N, most recent PM interactions, ref Jones et al. 2006 / Kaushansky et al. Chem and Biol 2008): 950 nM
- Kd (Protein SYK-NC, most recent PM interactions, ref Jones et al. 2006 / Kaushansky et al. Chem and Biol 2008): 920 nM

Substance: MDDVVDADEpYLIPQQGFd [ErbB1 1016]
- Kd [1]: 280 nM
- Kd [14]: 660 nM
- Kd [16]: 470 nM
- Kd (Protein CRKL, most recent PM interactions, ref Jones et al. 2006 / Kaushansky et al. Mol Biosys 2008 / Kaushansky et al. Chem and Biol 2008): 1000 nM
- Kd (Protein NCK1, most recent PM interactions, ref Jones et al. 2006 / Kaushansky et al. Mol Biosys 2008 / Kaushansky et al. Chem and Biol 2008): 1000 nM
- Kd (Protein PIK3R1-C, most recent PM interactions, ref Jones et al. 2006 / Kaushansky et al. Mol Biosys 2008 / Kaushansky et al. Chem and Biol 2008): 870 nM
- Kd (Protein PIK3R1-N, most recent PM interactions, ref Jones et al. 2006 / Kaushansky et al. Mol Biosys 2008 / Kaushansky et al. Chem and Biol 2008): 900 nM
- Kd [6]: 180 nM
- Kd [7]: 420 nM
- Kd [8]: 350 nM
- Kd (Protein PIK3R3-C, most recent PM interactions, ref Jones et al. 2006 / Kaushansky et al. Mol Biosys 2008 / Kaushansky et al. Chem and Biol 2008): 190 nM
- Kd [9]: 720 nM
- Kd [10]: 200 nM
- Kd (Protein PLCG1-NC, most recent PM interactions, ref Jones et al. 2006 / Kaushansky et al. Mol Biosys 2008 / Kaushansky et al. Chem and Biol 2008): 790 nM
- Kd (Protein PTPN11-N, most recent PM interactions, ref Jones et al. 2006 / Kaushansky et al. Mol Biosys 2008 / Kaushansky et al. Chem and Biol 2008): 380 nM
- Kd [2]: 490 nM
- Kd (Protein RASA1-NC, most recent PM interactions, ref Jones et al. 2006 / Kaushansky et al. Mol Biosys 2008 / Kaushansky et al. Chem and Biol 2008): 1420 nM
- Kd [12]: 1990 nM
- Kd [3]: 630 nM
- Kd [4]: 660 nM
- Kd (Protein SHC3, most recent PM interactions, ref Jones et al. 2006 / Kaushansky et al. Mol Biosys 2008 / Kaushansky et al. Chem and Biol 2008): 220 nM
- Kd (Protein SYK-C, most recent PM interactions, ref Jones et al. 2006 / Kaushansky et al. Mol Biosys 2008 / Kaushansky et al. Chem and Biol 2008): 930 nM
- Kd [5]: 610 nM
- Kd (Protein TNS4, most recent PM interactions, ref Jones et al. 2006 / Kaushansky et al. Mol Biosys 2008 / Kaushansky et al. Chem and Biol 2008): 920 nM
- Kd (Protein VAV1, most recent PM interactions, ref Jones et al. 2006 / Kaushansky et al. Mol Biosys 2008 / Kaushansky et al. Chem and Biol 2008): 1050 nM
- Kd [11]: 85 nM

Substance: NPAPSRDPHpYQDPHSTAd [ErbB1 1125]
- Kd [1]: 74 nM
- Kd (Protein BMX, most recent PM interactions, ref Jones et al. 2006 / Kaushansky et al. Mol Biosys 2008 / Kaushansky et al. Chem and Biol 2008): 1070 nM
- Kd [16]: 1230 nM
- Kd [2]: 1320 nM
- Kd [12]: 990 nM
- Kd [5]: 980 nM
- Kd (Protein TNS1, most recent PM interactions, ref Jones et al. 2006 / Kaushansky et al. Mol Biosys 2008 / Kaushansky et al. Chem and Biol 2008): 1280 nM
- Kd [13]: 380 nM

Substance: PAGSVQNPVpYHNQPLNPd [ErbB1 1110]
- Kd (Protein ABL1, most recent PM interactions, ref Jones et al. 2006 / Kaushansky et al. Mol Biosys 2008 / Kaushansky et al. Chem and Biol 2008): 520 nM
- Kd [1]: 60 nM
- Kd [3]: 320 nM
